The text below walks through data of ChEMBL document CHEMBL2434853, “3-(3-Butylamino-2-hydroxy-propoxy)-1-hydroxy-xanthen-9-one acts as a topoisomerase IIα catalytic inhibitor with low DNA damage” (Eur J Med Chem, 2013).

The source made the active and inactive calls. The rule behind the calls is not given here.

One assay concerns HEK293. The assay is described as follows: Cytotoxicity against HEK293 cells after 2 days by CCK-8 assay. In kind it is functional, cell-based. The conditions noted are these: Homo sapiens, HEK293, 48 h.
For a further assay, the system named is DU-145. Description: Cytotoxicity against human DU145 cells after 2 days by CCK-8 assay. In kind it is functional, cell-based. The conditions noted are these: DU-145, 48 h.
The test system of assay [1] is HCT-15. The assay is described as follows: Cytotoxicity against human HCT15 cells after 2 days by CCK-8 assay. In kind it is functional, cell-based. The conditions noted are these: HCT-15, 48 h.
The test system of the next assay is T47D. Description: Cytotoxicity against human T47D cells after 2 days by CCK-8 assay. The conditions noted are these: 48 h. Format: functional, cell-based.
Assay [2] addresses T1, DNA topoisomerase 2-alpha (Homo sapiens, UniProt P11388). The assay is described as follows: Inhibition of human DNA topoisomerase-2alpha assessed as relaxation of supercoiled pBR322 DNA after 30 mins by agarose gel electrophoresis.
Assay [3] deals with T1, DNA topoisomerase 2-alpha. Description: Inhibition of human DNA topoisomerase-2alpha assessed as relaxation of supercoiled pBR322 DNA at 100 uM after 30 mins by agarose gel electrophoresis relative to control.
The target in assay [4] is T1, DNA topoisomerase 2-alpha. Description: Inhibition of human DNA topoisomerase-2alpha assessed as relaxation of supercoiled pBR322 DNA at 20 uM after 30 mins by agarose gel electrophoresis relative to control.
Assay [5] concerns the target T1, DNA topoisomerase 2-alpha. The assay is described as follows: Inhibition of human DNA topoisomerase-2alpha assessed as relaxation of supercoiled pBR322 DNA at 10 uM after 30 mins by agarose gel electrophoresis relative to control.
For assay [6], the target named is T2, DNA topoisomerase 1 (Homo sapiens) (UniProt P11387).
T2 sequence (whole entry): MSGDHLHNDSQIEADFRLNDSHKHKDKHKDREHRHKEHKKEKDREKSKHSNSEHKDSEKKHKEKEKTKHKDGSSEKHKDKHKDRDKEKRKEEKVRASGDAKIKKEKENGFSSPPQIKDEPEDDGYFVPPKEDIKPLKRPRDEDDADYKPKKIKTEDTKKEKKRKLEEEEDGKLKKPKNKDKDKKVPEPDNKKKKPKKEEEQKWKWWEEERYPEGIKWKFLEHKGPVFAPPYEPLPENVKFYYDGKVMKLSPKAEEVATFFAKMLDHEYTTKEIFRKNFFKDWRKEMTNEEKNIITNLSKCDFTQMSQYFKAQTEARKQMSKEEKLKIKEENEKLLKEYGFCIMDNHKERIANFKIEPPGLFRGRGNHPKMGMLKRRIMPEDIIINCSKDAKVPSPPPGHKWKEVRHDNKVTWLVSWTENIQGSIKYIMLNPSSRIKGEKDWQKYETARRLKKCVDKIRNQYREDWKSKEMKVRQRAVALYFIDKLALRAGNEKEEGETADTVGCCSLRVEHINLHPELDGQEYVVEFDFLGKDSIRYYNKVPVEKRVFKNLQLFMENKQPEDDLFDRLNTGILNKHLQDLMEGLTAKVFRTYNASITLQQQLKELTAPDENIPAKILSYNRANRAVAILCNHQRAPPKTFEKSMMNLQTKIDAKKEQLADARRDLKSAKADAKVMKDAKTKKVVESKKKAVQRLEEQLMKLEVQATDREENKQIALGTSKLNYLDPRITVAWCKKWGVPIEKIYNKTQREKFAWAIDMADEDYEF
Description: Inhibition of recombinant human DNA topoisomerase-1 assessed as relaxation of supercoiled pBR322 DNA at 20 uM after 30 mins by agarose gel electrophoresis relative to control.

The test system of assay [7] is HCT-15. Description: Potency index, ratio of etoposide IC50 to compound IC50 for human HCT15 cells. Format: functional.
Assay [8] concerns HCT-15. Description: Induction of DNA damage in human HCT15 cells at 10 uM after 24 hrs by comet assay. Format: functional, cell-based.
The nature of assay [9]: Induction of pHOT1 DNA (unknown origin) intercalating activity assessed as blockade of DNA unwinding after 30 mins by agarose gel electrophoresis in presence of DNA topoisomerase-1.
Assay [10] relates to Escherichia coli. Description: Induction of Escherichia coli pBR322 DNA intercalating activity assessed as retardation of DNA at 300 uM after 20 mins by agarose gel electrophoresis.
In assay [11] the target is T1, DNA topoisomerase 2-alpha. Description: Inhibition of human DNA topoisomerase-2alpha ATPase activity using supercoiled pUC18 DNA as substrate assessed as inorganic phosphate release at 400 uM incubated for 30 mins prior to ATP addition measured after 30 mins by malachite green phosphate assay relative to control.
For assay [12], the target named is T1, DNA topoisomerase 2-alpha. Description: Inhibition of human DNA topoisomerase-2alpha ATPase activity using supercoiled pUC18 DNA as substrate assessed as inorganic phosphate release at 300 uM incubated for 30 mins prior to ATP addition measured after 30 mins by malachite green phosphate assay relative to control.
In assay [13] the target is T1, DNA topoisomerase 2-alpha. The assay is described as follows: Inhibition of human DNA topoisomerase-2alpha ATPase activity using supercoiled pUC18 DNA as substrate assessed as inorganic phosphate release at 200 uM incubated for 30 mins prior to ATP addition measured after 30 mins by malachite green phosphate assay relative to control.
For assay [14], the target named is T1, DNA topoisomerase 2-alpha. To be noted: 2 uM.
Description: Competitive inhibition of recombinant human DNA topoisomerase-2alpha assessed as relaxation of supercoiled pBR322 DNA at 2 uM after 30 mins by agarose gel electrophoresis in presence of 1.5 mM ATP relative to control
Assay [15] addresses T1, DNA topoisomerase 2-alpha. The conditions noted are these: 5 uM.
Description: Competitive inhibition of recombinant human DNA topoisomerase-2alpha assessed as relaxation of supercoiled pBR322 DNA at 5 uM after 30 mins by agarose gel electrophoresis in presence of 1.5 mM ATP relative to control
The target of assay [16] is T1, DNA topoisomerase 2-alpha. The conditions noted are these: 10 uM.
Description: Competitive inhibition of recombinant human DNA topoisomerase-2alpha assessed as relaxation of supercoiled pBR322 DNA at 10 uM after 30 mins by agarose gel electrophoresis in presence of 1.5 mM ATP relative to control
Assay [17] concerns the target T1, DNA topoisomerase 2-alpha. To be noted: 20 uM.
Description: Competitive inhibition of recombinant human DNA topoisomerase-2alpha assessed as relaxation of supercoiled pBR322 DNA at 20 uM after 30 mins by agarose gel electrophoresis in presence of 1.5 mM ATP relative to control
The target in assay [18] is T1, DNA topoisomerase 2-alpha. To be noted: 50 uM.
Description: Competitive inhibition of recombinant human DNA topoisomerase-2alpha assessed as relaxation of supercoiled pBR322 DNA at 50 uM after 30 mins by agarose gel electrophoresis in presence of 1.5 mM ATP relative to control
Assay [19] addresses T1, DNA topoisomerase 2-alpha. To be noted: 100 uM.
Description: Competitive inhibition of recombinant human DNA topoisomerase-2alpha assessed as relaxation of supercoiled pBR322 DNA at 100 uM after 30 mins by agarose gel electrophoresis in presence of 1.5 mM ATP relative to control
The target in assay [20] is T1, DNA topoisomerase 2-alpha. The conditions noted are these: 2 uM. The source holds these as a separate data set.
Description: Competitive inhibition of recombinant human DNA topoisomerase-2alpha assessed as relaxation of supercoiled pBR322 DNA at 2 uM after 30 mins by agarose gel electrophoresis in presence of 1 mM ATP relative to control
Assay [21] concerns the target T1, DNA topoisomerase 2-alpha. To be noted: 5 uM. The source holds these as a separate data set.
Description: Competitive inhibition of recombinant human DNA topoisomerase-2alpha assessed as relaxation of supercoiled pBR322 DNA at 5 uM after 30 mins by agarose gel electrophoresis in presence of 1 mM ATP relative to control
In assay [22] the target is T1, DNA topoisomerase 2-alpha. To be noted: 10 uM. This is another data set of the same source.
Description: Competitive inhibition of recombinant human DNA topoisomerase-2alpha assessed as relaxation of supercoiled pBR322 DNA at 10 uM after 30 mins by agarose gel electrophoresis in presence of 1 mM ATP relative to control
Assay [23] deals with T1, DNA topoisomerase 2-alpha. The conditions noted are these: 20 uM. The source holds these as a separate data set.
Description: Competitive inhibition of recombinant human DNA topoisomerase-2alpha assessed as relaxation of supercoiled pBR322 DNA at 20 uM after 30 mins by agarose gel electrophoresis in presence of 1 mM ATP relative to control
The target in assay [24] is T1, DNA topoisomerase 2-alpha. The conditions noted are these: 50 uM. This is another data set of the same source.
Description: Competitive inhibition of recombinant human DNA topoisomerase-2alpha assessed as relaxation of supercoiled pBR322 DNA at 50 uM after 30 mins by agarose gel electrophoresis in presence of 1 mM ATP relative to control
In assay [25] the target is T1, DNA topoisomerase 2-alpha. To be noted: 100 uM. This is another data set of the same source.
Description: Competitive inhibition of recombinant human DNA topoisomerase-2alpha assessed as relaxation of supercoiled pBR322 DNA at 100 uM after 30 mins by agarose gel electrophoresis in presence of 1 mM ATP relative to control
The nature of assay [26]: Induction of pHOT1 DNA (unknown origin) intercalating activity assessed as blockade of DNA unwinding at 50 to 500 uM after 30 mins by agarose gel electrophoresis in presence of DNA topoisomerase-1.
Assay [27] concerns Escherichia coli. Description: Induction of Escherichia coli pBR322 DNA intercalating activity assessed as retardation of DNA at 1 to 2.5 uM after 20 mins by agarose gel electrophoresis.

T1 sequence (P11388 whole entry): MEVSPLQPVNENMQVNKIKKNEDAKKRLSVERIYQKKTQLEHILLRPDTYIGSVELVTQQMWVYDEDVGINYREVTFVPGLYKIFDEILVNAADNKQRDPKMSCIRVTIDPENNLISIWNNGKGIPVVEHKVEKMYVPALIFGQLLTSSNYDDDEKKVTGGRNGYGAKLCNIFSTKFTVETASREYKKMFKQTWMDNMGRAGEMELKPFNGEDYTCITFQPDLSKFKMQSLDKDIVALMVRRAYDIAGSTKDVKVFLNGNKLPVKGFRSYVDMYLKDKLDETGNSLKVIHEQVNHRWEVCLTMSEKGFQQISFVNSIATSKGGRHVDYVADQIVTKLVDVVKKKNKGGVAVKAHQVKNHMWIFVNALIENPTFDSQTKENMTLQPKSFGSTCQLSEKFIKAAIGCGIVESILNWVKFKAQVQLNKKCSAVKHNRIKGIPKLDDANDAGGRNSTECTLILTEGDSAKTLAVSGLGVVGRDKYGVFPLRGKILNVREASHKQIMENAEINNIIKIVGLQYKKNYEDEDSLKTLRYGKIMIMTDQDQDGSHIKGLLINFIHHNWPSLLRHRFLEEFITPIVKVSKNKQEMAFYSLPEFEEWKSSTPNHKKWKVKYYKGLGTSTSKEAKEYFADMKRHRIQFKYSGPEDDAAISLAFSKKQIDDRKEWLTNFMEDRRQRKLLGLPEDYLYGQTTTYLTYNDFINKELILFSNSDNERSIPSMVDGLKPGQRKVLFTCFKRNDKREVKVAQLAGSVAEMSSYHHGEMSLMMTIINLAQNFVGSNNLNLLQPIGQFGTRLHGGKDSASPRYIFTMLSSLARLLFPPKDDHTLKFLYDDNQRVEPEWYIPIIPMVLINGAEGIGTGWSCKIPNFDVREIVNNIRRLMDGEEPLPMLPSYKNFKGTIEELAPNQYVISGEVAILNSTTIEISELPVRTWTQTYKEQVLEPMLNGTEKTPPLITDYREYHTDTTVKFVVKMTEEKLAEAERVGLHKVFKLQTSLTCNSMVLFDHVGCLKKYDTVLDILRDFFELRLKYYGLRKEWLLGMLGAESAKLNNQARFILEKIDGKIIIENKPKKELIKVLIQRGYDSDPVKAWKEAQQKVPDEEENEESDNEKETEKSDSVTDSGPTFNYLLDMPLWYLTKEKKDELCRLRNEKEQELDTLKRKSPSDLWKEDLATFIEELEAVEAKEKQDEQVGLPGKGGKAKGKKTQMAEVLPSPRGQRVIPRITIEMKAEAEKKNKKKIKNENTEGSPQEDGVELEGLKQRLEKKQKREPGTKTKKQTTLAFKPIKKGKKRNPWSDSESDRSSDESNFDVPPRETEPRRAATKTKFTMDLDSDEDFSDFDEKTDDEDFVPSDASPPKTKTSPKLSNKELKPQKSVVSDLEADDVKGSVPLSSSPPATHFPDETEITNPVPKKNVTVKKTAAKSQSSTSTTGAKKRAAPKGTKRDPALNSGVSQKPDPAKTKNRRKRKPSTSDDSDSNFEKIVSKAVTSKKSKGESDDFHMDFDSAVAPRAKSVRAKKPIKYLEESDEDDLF

For `CCCNCC(O)COc1cc(O)c2c(=O)c3ccccc3oc2c1` (configuration not stated), the IC50 in the assay on HEK293 came out at 4.28 µM; in the assay with DU-145, 1.98 µM; in the assay with HCT-15 [1] it was 5.49 µM; with T47D, 6.49 µM; in assay [2], 10.4 µM. The inhibition in [3] was 93.8%; in assay [4], 60.2%; in [5], 50.2%; in assay [6] it was 0%.
Regarding `CCCCNCC(O)COc1cc(O)c2c(=O)c3ccccc3oc2c1` (configuration not stated), in the assay on HCT-15 [7], the “Ratio IC50” value was 6.6. Besides, the outcome in the assay with HCT-15 [8] was inactive. Besides, the Activity result in assay [9] was “Dose-dependent effect”. In addition, the result in the assay with Escherichia coli [10] was Active. Also, the inhibition in [11] was 33.7%; in assay [12], 23.9%; in [13], 15.1%; in assay [3], 95.1%; in [4], 67.7%; in assay [5], 64%. The inhibition in [6] was 0%; in assay [14], 7.1%; in assay [15] it was 17.5%; in [16], 21%; in assay [17], 37.7%; in [18], 64.9%. Also, the inhibition in assay [19] worked out at 88.7%; in assay [20] it was 4%; in assay [21] it was 48.5%; in [22] it was 60.4%; in assay [23] it was 87.9%; in assay [24] it was 87.7%. In [25], this molecule registered an inhibition of 88.7%. For the same molecule, the IC50 was 3.44 µM with HEK293; 1.98 µM in the assay on DU-145; 0.78 µM in the assay on HCT-15 [1]; 0.93 µM with T47D; 9 µM in assay [2].
`CCCCCNCC(O)COc1cc(O)c2c(=O)c3ccccc3oc2c1` (configuration not stated): the IC50 in the assay on HEK293 turned out to be 2.65 µM; in the assay with DU-145, 1.13 µM; in the assay with HCT-15 [1], 0.71 µM; in the assay on T47D it was 1.62 µM; in assay [2], 16.4 µM. Moreover, the inhibition was 92.9% in assay [3], 52.1% in [4], 0.7% in assay [5] and 3% in assay [6].
For `CCCCNCC(O)COc1cc(O)c2c(=O)c3cccc(OC)c3oc2c1` (configuration not stated), the IC50 with HEK293 worked out at 1.74 µM; with DU-145, 3.31 µM; with HCT-15 [1], 9.11 µM; in the assay with T47D, 2.97 µM; in [2] it was 11.2 µM. Moreover, the inhibition in assay [3] turned out to be 100%; in [4], 68.1%; in assay [5] it was 24.2%; in assay [6] it was 0%.
As for `COc1cc([C@@H]2c3cc4c(cc3[C@@H](O[C@@H]3O[C@@H]5CO[C@@H](C)O[C@H]5[C@H](O)[C@H]3O)[C@H]3COC(=O)[C@H]23)OCO4)cc(OC)c1O` [ETOPOSIDE], in the assay with HCT-15 [8], the outcome was Active. For the same molecule, the half-inhibitory concentration (IC50) stood at 0.72 µM in the assay on HEK293, 9.29 µM in the assay with DU-145, 5.12 µM in the assay with HCT-15 [1] and 3.42 µM in the assay with T47D. The figures for the inhibition in [5], in assay [19] and in assay [25] were 18%, 82.6% and 87.6%, respectively.
As for `CCCCCCNCC(O)COc1cc(O)c2c(=O)c3cccc(OC)c3oc2c1` (configuration not stated), the 50% inhibitory concentration (IC50) in the assay with HEK293 was found to be 4.53 µM; in the assay with DU-145, 1.79 µM; with HCT-15 [1] it was 6.32 µM; with T47D it was 6.17 µM; in assay [2], 13.8 µM. Besides, the inhibition turned out to be 100% in [3], 61.2% in assay [4], 0% in [5] and 0% in assay [6].
As to `COc1cc(NS(C)(=O)=O)ccc1Nc1c2ccccc2nc2ccccc12`, in assay [26], the outcome was Active.
`COc1cccc2c1C(=O)c1c(O)c3c(c(O)c1C2=O)C[C@@](O)(C(=O)CO)C[C@@H]3O[C@H]1C[C@H](N)[C@H](O)[C@H](C)O1` [DOXORUBICIN]: the 50% inhibitory concentration (IC50) with HEK293 turned out to be 3.07 µM; in the assay with DU-145, 2.68 µM; in the assay on HCT-15 [1], 1.38 µM; with T47D it was 0.41 µM.
Regarding `CCCNCC(O)COc1cc(O)c2c(=O)c3cccc(OC)c3oc2c1` (configuration not stated), the IC50 worked out at 3.62 µM with HEK293; 1.48 µM with DU-145; 5.39 µM in the assay on HCT-15 [1]; 3.33 µM with T47D; 12 µM in assay [2]. Also, the inhibition in assay [3] amounted to 100%; in assay [4], 64.4%; in assay [5], 6%; in [6] it was 0%.
Regarding `CCCCCNCC(O)COc1cc(O)c2c(=O)c3cccc(OC)c3oc2c1` (configuration not stated), the IC50 in the assay with HEK293 was found to be 7.22 µM; with DU-145, 0.91 µM; with HCT-15 [1], 1 µM; in the assay with T47D it was 9.8 µM; in assay [2], 13.8 µM. Besides, the inhibition is 100% in assay [3], 62.6% in assay [4], 2% in assay [5] and 0% in [6].
As for `CO[C@@H]1[C@@H](OC(N)=O)[C@@H](O)[C@H](Oc2ccc3c(O)c(NC(=O)c4ccc(O)c(CC=C(C)C)c4)c(=O)oc3c2C)OC1(C)C`, the values for the inhibition in [11], in assay [12] and in [13] were 76.8%, 63.6% and 14.4%, respectively.
Consider `CC[n+]1c(-c2ccccc2)c2cc(N)ccc2c2ccc(N)cc21`, for which the outcome in the assay with Escherichia coli [27] was Active.
`CC[C@@]1(O)C(=O)OCc2c1cc1n(c2=O)Cc2cc3ccccc3nc2-1` [CAMPTOTHECIN]: the IC50 in the assay on HEK293 worked out at 0.78 µM; with DU-145 it was 0.39 µM; with HCT-15 [1] it was 0.42 µM; in the assay with T47D it was 0.3 µM.
In the case of `CCCCCCNCC(O)COc1cc(O)c2c(=O)c3ccccc3oc2c1` (configuration not stated), the IC50 was 1.45 µM in the assay with HEK293; 1.15 µM in the assay on DU-145; 1.53 µM with HCT-15 [1]; 1.28 µM in the assay on T47D; 19.7 µM in assay [2]. In addition, the inhibition in [3] amounted to 80.7%; in assay [4], 43.6%; in [5], 0%; in assay [6] it was 0%.
